# Measurements reported in PubChem BioAssay AID330 (DTP/NCI, 2004).
# Where “and” joins values, the source holds several entries; their conditions need not be identical. Equal entries are not always repeated. Toxic doses and inconclusive results are not listed.
# Tested on: P388 leukemia ip, CD2F1 mice, survival T/C
# Experiment: NCI In Vivo Anticancer Drug Screen. Data for tumor model P388 Leukemia (intraperitoneal) in CD2F1 (CDF1) mice
# Conditions: endpoint: median survival time, higher = longer survival
# Procedure, shortened: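 Mice carrying the transplanted tumor received test compound or vehicle. Survival was recorded in each group, and the value is the treated-group measurement divided by that of the vehicle-treated control group.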
# [1] = dose: 50.0 mg/kg/injection, schedule: Q01DX009 (ip), vehicle: saline with Tween-80
# [2] = dose: 100.0 mg/kg/injection, schedule: Q01DX009 (ip), vehicle: saline with Tween-80
# [3] = dose: 200.0 mg/kg/injection, schedule: Q01DX009 (ip), vehicle: saline with Tween-80
# [4] = dose: 50.0 mg/kg/injection, schedule: Q01DX005 (ip), vehicle: Klucel (hydroxypropylcellulose) (HPC)
# [5] = dose: 100.0 mg/kg/injection, schedule: Q01DX005 (ip), vehicle: Klucel (hydroxypropylcellulose) (HPC)
# [6] = dose: 200.0 mg/kg/injection, schedule: Q01DX005 (ip), vehicle: Klucel (hydroxypropylcellulose) (HPC)
# [7] = dose: 100.0 mg/kg/injection, schedule: Q04DX003 (ip), vehicle: saline with Tween-80
# [8] = dose: 200.0 mg/kg/injection, schedule: Q04DX003 (ip), vehicle: saline with Tween-80
# [9] = dose: 50.0 mg/kg/injection, schedule: Q01DX009 (ip), vehicle: Klucel (hydroxypropylcellulose) (HPC)
# [10] = dose: 100.0 mg/kg/injection, schedule: Q01DX009 (ip), vehicle: Klucel (hydroxypropylcellulose) (HPC)
# [11] = dose: 200.0 mg/kg/injection, schedule: Q01DX009 (ip), vehicle: Klucel (hydroxypropylcellulose) (HPC)
# [12] = dose: 60.0 mg/kg/injection, schedule: Q01DX005 (ip), vehicle: saline with Tween-80
# [13] = dose: 120.0 mg/kg/injection, schedule: Q01DX005 (ip), vehicle: saline with Tween-80
# [14] = dose: 240.0 mg/kg/injection, schedule: Q01DX005 (ip), vehicle: saline with Tween-80
# [15] = dose: 50.0 mg/kg/injection, schedule: Q01DX005 (ip), vehicle: saline with Tween-80
# [16] = dose: 100.0 mg/kg/injection, schedule: Q01DX005 (ip), vehicle: saline with Tween-80
# [17] = dose: 200.0 mg/kg/injection, schedule: Q01DX005 (ip), vehicle: saline with Tween-80
# [18] = dose: 15.0 mg/kg/injection, schedule: Q01DX005 (ip), vehicle: saline with Tween-80
# [19] = dose: 30.0 mg/kg/injection, schedule: Q01DX005 (ip), vehicle: saline with Tween-80
structure (smiles),measurement,setting,value
COc1cc2oc3cc(=O)cc4oc(-c5ccccc5)cc(c2c2c1CCC(c1ccccc1)O2)c43 (stereo unspecified),T/C,"dose: 3.25 mg/kg/injection, schedule: Q01DX005 (ip), vehicle: Klucel + Tween-80",98 % of control
same,T/C,"dose: 6.5 mg/kg/injection, schedule: Q01DX005 (ip), vehicle: Klucel + Tween-80",99 % of control
same,T/C,"dose: 13.0 mg/kg/injection, schedule: Q01DX005 (ip), vehicle: Klucel + Tween-80",103 % of control
same,T/C,"dose: 26.0 mg/kg/injection, schedule: Q01DX005 (ip), vehicle: Klucel + Tween-80",107 % of control
N/C(=N/S(=O)(=O)c1cccc([N+](=O)[O-])c1)NS(=O)(=O)c1ccc([N+](=O)[O-])cc1,T/C,"dose: 7.5 mg/kg/injection, schedule: Q01DX009 (ip), vehicle: saline with Tween-80",101 % of control
same,T/C,"dose: 15.0 mg/kg/injection, schedule: Q01DX009 (ip), vehicle: saline with Tween-80",113 % of control
same,T/C,"dose: 30.0 mg/kg/injection, schedule: Q01DX009 (ip), vehicle: saline with Tween-80",110 % of control
O=[N+]([O-])c1ccc(N=Nc2ccc(N(CCCl)CCCl)cc2)cc1,T/C,"dose: 50.0 mg/kg/injection, schedule: Q04DX003 (ip), vehicle: Klucel (hydroxypropylcellulose) (HPC)",100 % of control
same,T/C,"dose: 100.0 mg/kg/injection, schedule: Q04DX003 (ip), vehicle: Klucel (hydroxypropylcellulose) (HPC)",100 % of control
same,T/C,"dose: 200.0 mg/kg/injection, schedule: Q04DX003 (ip), vehicle: Klucel (hydroxypropylcellulose) (HPC)",106 % of control
CCCC(O)(CCC)/C(C)=N/NC(N)=O,T/C,[1],95 % of control
same,T/C,[2],97 % of control
same,T/C,[3],92 % of control
O=c1c2sc3ccccc3c2ncn1CN1CCOCC1,T/C,[4],112 % of control
same,T/C,[5],121 % of control
same,T/C,[6],118 % of control
CCNc1nc(Cl)nc(NC(C)C)n1,T/C,"dose: 50.0 mg/kg/injection, schedule: Q04DX003 (ip), vehicle: saline with Tween-80",91 % of control
same,T/C,[7],87 % of control
same,T/C,[8],91 % of control
CCCCCCC(O)/C=C/c1ccc(N(C)C)cc1 (stereo unspecified),T/C,[9],103 % of control
same,T/C,[10],99 % of control
same,T/C,[11],102 % of control
CC(=O)OC1Cc2c(cc3c4c(cccc24)N(C(C)=O)C3)N(C)C1 (stereo unspecified),T/C,"dose: 100.0 mg/kg/injection, schedule: Q04DX002 (ip), vehicle: saline with Tween-80",105 % of control
same,T/C,"dose: 200.0 mg/kg/injection, schedule: Q04DX002 (ip), vehicle: saline with Tween-80",108 % of control
same,T/C,"dose: 400.0 mg/kg/injection, schedule: Q04DX002 (ip), vehicle: saline with Tween-80",100 % of control
CC(=O)N/C(=C/c1ccccc1)C(=O)N1CCCC1C(=O)O (stereo unspecified),T/C,"dose: 12.5 mg/kg/injection, schedule: Q01DX009 (ip), vehicle: saline",105 % of control
same,T/C,"dose: 25.0 mg/kg/injection, schedule: Q01DX009 (ip), vehicle: saline",104 % of control
same,T/C,"dose: 50.0 mg/kg/injection, schedule: Q01DX009 (ip), vehicle: saline",96 % of control
Clc1cc2nc[nH]c2cc1Cl,T/C,[1],101 % of control
same,T/C,[2],90 % of control
COc1cc(NCC(O)CN(CC(C)C)C2CCCC2)c2ncccc2c1 (stereo unspecified),T/C,"dose: 12.5 mg/kg/injection, schedule: Q01DX005 (ip), vehicle: saline",100 % of control
same,T/C,"dose: 25.0 mg/kg/injection, schedule: Q01DX005 (ip), vehicle: saline",99 % of control
O=C(CN1CC1)NCCCCCCCCCNC(=O)CN1CC1,T/C,"dose: 2.5 mg/kg/injection, schedule: Q01DX009 (ip), vehicle: saline with Tween-80",90 % of control
same,T/C,"dose: 5.0 mg/kg/injection, schedule: Q01DX009 (ip), vehicle: saline with Tween-80",150 % of control
same,T/C,"dose: 10.0 mg/kg/injection, schedule: Q01DX009 (ip), vehicle: saline with Tween-80",186 % of control
Cc1ccc(C(=O)N=Nc2c(Cl)c(O)c3ccccc3c2O)cc1,T/C,[4],103 % of control
same,T/C,[5],99 % of control
same,T/C,[6],103 % of control
Cc1nc(Nc2ccc(F)cc2)c2c(C)c(CC(C)C)[nH]c2n1,T/C,[4],87 % of control
same,T/C,[5],91 % of control
same,T/C,[6],100 % of control
O=C(Nc1ccc(Cl)cc1)Nc1nnc2nc(C(C(=O)c3ccc(Cl)cc3Cl)c3nc4nnc(NC(=O)Nc5ccc(Cl)cc5)n4[nH]c3=O)c(=O)[nH]n12,T/C,[12],103 % of control
same,T/C,[13],101 % of control
same,T/C,[14],101 % of control
O=C1C=CC(O)C1(O)CO (stereo unspecified),T/C,"dose: 2.5 mg/kg/injection, schedule: Q01DX009 (ip), vehicle: saline + alcohol",98 % of control
same,T/C,"dose: 5.0 mg/kg/injection, schedule: Q01DX009 (ip), vehicle: saline + alcohol",100 % of control
same,T/C,"dose: 10.0 mg/kg/injection, schedule: Q01DX009 (ip), vehicle: saline + alcohol",105 % of control
same,T/C,"dose: 20.0 mg/kg/injection, schedule: Q01DX009 (ip), vehicle: saline + alcohol",101 % of control
Cc1cc2c(c3c1c(=O)c1ccccc1n3C)C=CC(C)(C)O2,T/C,[15],114 % of control
same,T/C,[16],108 % of control
same,T/C,[17],120 % of control
same,T/C,"dose: 300.0 mg/kg/injection, schedule: Q01DX005 (ip), vehicle: saline with Tween-80",120 % of control
Nc1[nH]c(=S)[nH]c(=O)c1NS(=O)(=O)c1cccc([N+](=O)[O-])c1,T/C,"dose: 30.0 mg/kg/injection, schedule: Q01DX005 (ip), vehicle: Klucel (hydroxypropylcellulose) (HPC)",103 % of control and 105 % of control
same,T/C,"dose: 60.0 mg/kg/injection, schedule: Q01DX005 (ip), vehicle: Klucel (hydroxypropylcellulose) (HPC)",100 % of control and 97 % of control
same,T/C,"dose: 120.0 mg/kg/injection, schedule: Q01DX005 (ip), vehicle: Klucel (hydroxypropylcellulose) (HPC)",98 % of control and 97 % of control
same,T/C,"dose: 240.0 mg/kg/injection, schedule: Q01DX005 (ip), vehicle: Klucel (hydroxypropylcellulose) (HPC)",99 % of control and 106 % of control
CC(CN=C(CC(=O)c1ccccc1)c1ccccc1)N=C(CC(=O)c1ccccc1)c1ccccc1.[Cu] (stereo unspecified),T/C,[1],100 % of control
same,T/C,[2],106 % of control
same,T/C,[3],91 % of control
NC(=O)NC1(N)C(=O)NC(=O)NC1=O,T/C,[12],94 % of control
same,T/C,[13],95 % of control
same,T/C,[14],93 % of control
CC(C)(C)Oc1ccc(CC(NC(=O)OCC2c3ccccc3-c3ccccc32)C(=O)O)cc1 (stereo unspecified),T/C,"dose: 25.0 mg/kg/injection, schedule: Q01DX005 (ip), vehicle: Klucel (hydroxypropylcellulose) (HPC)",107 % of control
same,T/C,[4],107 % of control and 109 % of control
same,T/C,[5],120 % of control
same,T/C,[6],104 % of control and 120 % of control
Cn1nc(N)c2ncc(-c3ccc(Cl)cc3)nc21,T/C,[7],90 % of control
same,T/C,[8],95 % of control
N#CCSCC(N)C(=O)O (stereo unspecified),T/C,[15],103 % of control
same,T/C,[16],105 % of control
same,T/C,[17],105 % of control
Cc1cc(=O)n2c(nc3cc(Cl)ccc32)s1,T/C,[9],103 % of control
same,T/C,[10],95 % of control
same,T/C,[11],89 % of control
Cc1ccc(S(=O)(=O)NC(=O)/N=C2\NC(=O)CS2)cc1,T/C,[15],100 % of control
same,T/C,[16],103 % of control
same,T/C,[17],91 % of control
COc1cc(OC)c(/C=N/NC(=S)NC23CC4CC(CC(C4)C2)C3)c(OC)c1,T/C,[18],94 % of control
same,T/C,[19],97 % of control
same,T/C,[14],89 % of control
O=C(C1=Cc2ccccc2OC1)N1CCN(c2cccc(Cl)c2)CC1,T/C,[7],98 % of control
same,T/C,[8],102 % of control
same,T/C,"dose: 400.0 mg/kg/injection, schedule: Q04DX003 (ip), vehicle: saline with Tween-80",93 % of control
CC12CCC(=O)C1C=CC2=O (stereo unspecified),T/C,"dose: 100.0 mg/kg/injection, schedule: Q04DX003 (ip), vehicle: saline + Tween-80 + alcohol",100 % of control
same,T/C,"dose: 200.0 mg/kg/injection, schedule: Q04DX003 (ip), vehicle: saline + Tween-80 + alcohol",112 % of control
CCCCCCCCS(=O)(=O)OCCCCOS(=O)(=O)CCCCCCCC,T/C,"dose: 31.25 mg/kg/injection, schedule: Q01DX005 (ip), vehicle: Klucel (hydroxypropylcellulose) (HPC)",103 % of control
same,T/C,"dose: 62.5 mg/kg/injection, schedule: Q01DX005 (ip), vehicle: Klucel (hydroxypropylcellulose) (HPC)",103 % of control
same,T/C,"dose: 125.0 mg/kg/injection, schedule: Q01DX005 (ip), vehicle: Klucel (hydroxypropylcellulose) (HPC)",103 % of control
Cc1nc2ccc(N)cc2oc1=O,T/C,[18],100 % of control
same,T/C,[19],101 % of control
same,T/C,[12],105 % of control and 98 % of control
